Source: the CheMixHub ionic liquid set

Experiment: xn = mol fraction of the nth substance listed
Conditions: 101 kPa

CCCCCCCCCCCCCC[n+]1ccccc1.O=C([O-])C(O)c1ccccc1 + NCC(=O)NCC(=O)O + O
electrical conductivity [S/m]
Conditions | 293.15 K | 298.15 K | 303.15 K | 308.15 K | 313.15 K
x1 = 5.26e-06, x2 = 0.0009002 | 0.00276 | 0.00323 | 0.00375 | 0.00433 | 0.005
x1 = 6.01e-06, x2 = 0.001799 | 0.00408 | 0.00487 | 0.00569 | 0.0066 | 0.0077
x1 = 6.85e-06, x2 = 0 | 0.00248 | 0.00278 | 0.00309 | 0.0034 | 0.0037
x1 = 9.97e-06, x2 = 0.0009002 | 0.00403 | 0.00465 | 0.00533 | 0.0061 | 0.0069
x1 = 1.185e-05, x2 = 0.001799 | 0.00561 | 0.00655 | 0.0076 | 0.0088 | 0.01
x1 = 1.424e-05, x2 = 0 | 0.00472 | 0.00529 | 0.00587 | 0.0065 | 0.0071
x1 = 1.486e-05, x2 = 0.0009002 | 0.0054 | 0.00621 | 0.0071 | 0.008 | 0.009
x1 = 1.713e-05, x2 = 0.001799 | 0.00703 | 0.0082 | 0.0094 | 0.0107 | 0.0122
x1 = 2.084e-05, x2 = 0.0009002 | 0.00697 | 0.008 | 0.0091 | 0.0102 | 0.0114
x1 = 2.126e-05, x2 = 0 | 0.00671 | 0.0076 | 0.0084 | 0.0093 | 0.0101
x1 = 2.26e-05, x2 = 0.001799 | 0.0085 | 0.0098 | 0.0112 | 0.0128 | 0.0144
x1 = 2.537e-05, x2 = 0.0009002 | 0.0082 | 0.0094 | 0.0106 | 0.012 | 0.0134
x1 = 2.788e-05, x2 = 0.001799 | 0.0098 | 0.0113 | 0.0129 | 0.0146 | 0.0165
x1 = 2.811e-05, x2 = 0 | 0.0086 | 0.0097 | 0.0108 | 0.0122 | 0.0131
x1 = 3.117e-05, x2 = 0.0009002 | 0.0097 | 0.0111 | 0.0125 | 0.014 | 0.0157
x1 = 3.335e-05, x2 = 0.001799 | 0.0111 | 0.0127 | 0.0145 | 0.0164 | 0.0184
x1 = 3.46e-05, x2 = 0 | 0.0103 | 0.0116 | 0.0129 | 0.0145 | 0.0157
x1 = 3.679e-05, x2 = 0.0009002 | 0.011 | 0.0125 | 0.0141 | 0.0159 | 0.0178
x1 = 3.864e-05, x2 = 0.001799 | 0.0122 | 0.014 | 0.0159 | 0.018 | 0.0203
x1 = 4.108e-05, x2 = 0 | 0.0117 | 0.0131 | 0.0146 | 0.0161 | 0.0179
x1 = 4.386e-05, x2 = 0.0009001 | 0.0123 | 0.014 | 0.0157 | 0.0177 | 0.0199
x1 = 4.574e-05, x2 = 0.001799 | 0.0134 | 0.0153 | 0.0174 | 0.0197 | 0.0222
x1 = 4.811e-05, x2 = 0 | 0.0129 | 0.0144 | 0.0161 | 0.0179 | 0.0198
x1 = 5.11e-05, x2 = 0.0009001 | 0.0133 | 0.0151 | 0.017 | 0.0192 | 0.0215
x1 = 5.321e-05, x2 = 0.001799 | 0.0145 | 0.0165 | 0.0187 | 0.0213 | 0.024
x1 = 5.388e-05, x2 = 0 | 0.0137 | 0.0154 | 0.0172 | 0.0191 | 0.0211
x1 = 5.781e-05, x2 = 0.0009001 | 0.0143 | 0.0162 | 0.0182 | 0.0205 | 0.023
x1 = 5.982e-05, x2 = 0 | 0.0145 | 0.0163 | 0.0182 | 0.0202 | 0.0224
x1 = 6.069e-05, x2 = 0.001799 | 0.0155 | 0.0177 | 0.02 | 0.0227 | 0.0254
x1 = 6.433e-05, x2 = 0.0009001 | 0.0152 | 0.0172 | 0.0193 | 0.0218 | 0.0244
x1 = 6.559e-05, x2 = 0 | 0.0153 | 0.0172 | 0.0192 | 0.0213 | 0.0236
x1 = 6.816e-05, x2 = 0.001799 | 0.0165 | 0.0187 | 0.0213 | 0.024 | 0.027
x1 = 7.081e-05, x2 = 0 | 0.016 | 0.018 | 0.02 | 0.0223 | 0.0246
x1 = 7.104e-05, x2 = 0.0009001 | 0.0161 | 0.0182 | 0.0204 | 0.023 | 0.0258
x1 = 7.454e-05, x2 = 0.001799 | 0.0173 | 0.0197 | 0.0222 | 0.0252 | 0.0283
x1 = 7.604e-05, x2 = 0 | 0.0167 | 0.0187 | 0.0209 | 0.0232 | 0.0258
x1 = 7.81e-05, x2 = 0.0009001 | 0.0171 | 0.0193 | 0.0217 | 0.0244 | 0.0273
x1 = 8.072e-05, x2 = 0 | 0.0173 | 0.0194 | 0.0217 | 0.0241 | 0.0266
x1 = 8.128e-05, x2 = 0.001799 | 0.0182 | 0.0207 | 0.0233 | 0.0265 | 0.0298
